# Reference: patent publication US20230085307A1, “PYRIDAZINONE COMPOUND AND HERBICIDE” (NISSAN CHEMICAL CORPORATION, priority 2019, published 2023)
# Columns and labels:
# [1] = system: late watergrass; test: Test Example 1: herbicidal activity, application before weed generation under submerged conditions (Table 16, symbol A); assay type: in vivo, late watergrass (Echinochloa oryzicola); settings: 320 g/ha applied herbicide
# Summary of the method: (§1)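 Submerged Wagner pots (alluvial soil, 4 cm water) sown with weed seeds and planted with 2.5-leaf rice seedlings; emulsifiable concentrate diluted in water applied to water surface on sowing day. Held in greenhouse at 25-30 °C; injury scored 0-5 by herbicidal rate after three weeks.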
# [2] = system: Japanese bulrush; test: Test Example 1: herbicidal activity, application before weed generation under submerged conditions (Table 16, symbol B); assay type: in vivo, Japanese bulrush (Schoenoplectus juncoides); settings: 320 g/ha applied herbicide
# Summary of the method: as §1
# [3] = system: oval-leafed pondweed; test: Test Example 1: herbicidal activity, application before weed generation under submerged conditions (Table 16, symbol C); assay type: in vivo, oval-leafed pondweed (Monochoria vaginalis); settings: 320 g/ha applied herbicide
# Summary of the method: as §1
# [4] = system: barnyard grass; test: Test Example 3: herbicidal effect by foliage application, Wagner pot (Table 18, symbol H); assay type: in vivo, barnyard grass (Echinochloa crus-galli); settings: amount of applied herbicide 320 g/ha
# Summary of the method: (§2)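 Plants were sown in alluvial soil held under 0.1–0.5 cm standing water and grown 14 days in a greenhouse at 25–30 °C. An emulsifiable formulation, water-diluted to the set dose, was then sprayed onto the foliage, and effects were scored three weeks later using previously defined criteria.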
# [5] = system: Chinese sprangletop; test: Test Example 3: herbicidal effect by foliage application, Wagner pot (Table 18, symbol D); assay type: in vivo, chinese sprangletop (Leptochloa chinensis); settings: amount of applied herbicide 320 g/ha
# Summary of the method: as §2
# [6] = system: rice flat sedge; test: Test Example 3: herbicidal effect by foliage application, Wagner pot (Table 18, symbol E); assay type: in vivo, rice flat sedge (Cyperus iria); settings: amount of applied herbicide 320 g/ha
# Summary of the method: as §2
# [7] = system: southern crabgrass; test: Test Example 4: herbicidal effect by soil treatment (Table 19, symbol F); assay type: in vivo, southern crabgrass (Digitaria ciliaris); settings: amount of applied herbicide 320 g/ha
# Summary of the method: (§3)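 Emulsion of test compound, water-diluted to predetermined amount, sprayed on soil after sowing (seed depth ~1.5 cm, sterilized diluvial soil). Greenhouse, 25–30° C. Effect graded at three weeks post-spray.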
# [8] = system: green foxtail; test: Test Example 4: herbicidal effect by soil treatment (Table 19, symbol G); assay type: in vivo, green foxtail (Setaria viridis); settings: amount of applied herbicide 320 g/ha
# Summary of the method: as §3
# [9] = system: barnyard grass; test: Test Example 4: herbicidal effect by soil treatment (Table 19, symbol H); assay type: in vivo, barnyard grass (Echinochloa crus-galli); settings: amount of applied herbicide 320 g/ha
# Summary of the method: as §3
# [10] = system: wild oat; test: Test Example 4: herbicidal effect by soil treatment (Table 19, symbol I); assay type: in vivo, wild oat (Avena fatua); settings: amount of applied herbicide 320 g/ha
# Summary of the method: as §3
# [11] = system: blackgrass; test: Test Example 4: herbicidal effect by soil treatment (Table 19, symbol J); assay type: in vivo, blackgrass (Alopecurus myosuroides); settings: amount of applied herbicide 320 g/ha
# Summary of the method: as §3
# [12] = system: Italian ryegrass; test: Test Example 4: herbicidal effect by soil treatment (Table 19, symbol K); assay type: in vivo, Italian ryegrass (Lolium multiflorum); settings: amount of applied herbicide 320 g/ha
# Summary of the method: as §3
# [13] = system: windgrass; test: Test Example 4: herbicidal effect by soil treatment (Table 19, symbol L); assay type: in vivo, windgrass (Apera spica-venti); settings: amount of applied herbicide 320 g/ha
# Summary of the method: as §3
# [14] = system: velvetleaf; test: Test Example 4: herbicidal effect by soil treatment (Table 19, symbol M); assay type: in vivo, velvetleaf (Abutilon theophrasti); settings: amount of applied herbicide 320 g/ha
# Summary of the method: as §3
# [15] = system: redroot pigweed; test: Test Example 4: herbicidal effect by soil treatment (Table 19, symbol N); assay type: in vivo, redroot pigweed (Amaranthus retroflexus); settings: amount of applied herbicide 320 g/ha
# Summary of the method: as §3
# [16] = system: lambsquarters; test: Test Example 4: herbicidal effect by soil treatment (Table 19, symbol O); assay type: in vivo, lambsquarters (Chenopodium album); settings: amount of applied herbicide 320 g/ha
# Summary of the method: as §3
# [17] = system: chickweed; test: Test Example 4: herbicidal effect by soil treatment (Table 19, symbol P); assay type: in vivo, common chickweed (Stellaria media); settings: amount of applied herbicide 320 g/ha
# Summary of the method: as §3
# [18] = system: false cleavers; test: Test Example 4: herbicidal effect by soil treatment (Table 19, symbol Q); assay type: in vivo, false cleavers (Galium spurium); settings: amount of applied herbicide 320 g/ha
# Summary of the method: as §3
# [19] = system: persian speedwell; test: Test Example 4: herbicidal effect by soil treatment (Table 19, symbol R); assay type: in vivo, Persian speedwell (Veronica persica); settings: amount of applied herbicide 320 g/ha
# Summary of the method: as §3
# [20] = system: southern crabgrass; test: Test Example 5: herbicidal effect by foliage application, plastic box (Table 20, symbol F); assay type: in vivo, southern crabgrass (Digitaria ciliaris); settings: foliage application, 320 g/ha, evaluated three weeks after application
# Summary of the method: (§4)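 Post-emergence foliar test in sterilized diluvial soil. Compound applied as water-diluted emulsion at a predetermined rate to 14-day-old plants; evaluation at three weeks.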
# [21] = system: green foxtail; test: Test Example 5: herbicidal effect by foliage application, plastic box (Table 20, symbol G); assay type: in vivo, green foxtail (Setaria viridis); settings: foliage application, 320 g/ha, evaluated three weeks after application
# Summary of the method: as §4
# [22] = system: barnyard grass; test: Test Example 5: herbicidal effect by foliage application, plastic box (Table 20, symbol H); assay type: in vivo, barnyard grass (Echinochloa crus-galli); settings: foliage application, 320 g/ha, evaluated three weeks after application
# Summary of the method: as §4
# [23] = system: wild oat; test: Test Example 5: herbicidal effect by foliage application, plastic box (Table 20, symbol I); assay type: in vivo, wild oat (Avena fatua); settings: foliage application, 320 g/ha, evaluated three weeks after application
# Summary of the method: as §4
# [24] = system: blackgrass; test: Test Example 5: herbicidal effect by foliage application, plastic box (Table 20, symbol J); assay type: in vivo, blackgrass (Alopecurus myosuroides); settings: foliage application, 320 g/ha, evaluated three weeks after application
# Summary of the method: as §4
# [25] = system: Italian ryegrass; test: Test Example 5: herbicidal effect by foliage application, plastic box (Table 20, symbol K); assay type: in vivo, Italian ryegrass (Lolium multiflorum); settings: foliage application, 320 g/ha, evaluated three weeks after application
# Summary of the method: as §4
# [26] = system: windgrass; test: Test Example 5: herbicidal effect by foliage application, plastic box (Table 20, symbol L); assay type: in vivo, windgrass (Apera spica-venti); settings: foliage application, 320 g/ha, evaluated three weeks after application
# Summary of the method: as §4
# [27] = system: velvetleaf; test: Test Example 5: herbicidal effect by foliage application, plastic box (Table 20, symbol M); assay type: in vivo, velvetleaf (Abutilon theophrasti); settings: foliage application, 320 g/ha, evaluated three weeks after application
# Summary of the method: as §4
# [28] = system: redroot pigweed; test: Test Example 5: herbicidal effect by foliage application, plastic box (Table 20, symbol N); assay type: in vivo, redroot pigweed (Amaranthus retroflexus); settings: foliage application, 320 g/ha, evaluated three weeks after application
# Summary of the method: as §4
# [29] = system: lambsquarters; test: Test Example 5: herbicidal effect by foliage application, plastic box (Table 20, symbol O); assay type: in vivo, lambsquarters (Chenopodium album); settings: foliage application, 320 g/ha, evaluated three weeks after application
# Summary of the method: as §4
# [30] = system: chickweed; test: Test Example 5: herbicidal effect by foliage application, plastic box (Table 20, symbol P); assay type: in vivo, common chickweed (Stellaria media); settings: foliage application, 320 g/ha, evaluated three weeks after application
# Summary of the method: as §4
# [31] = system: false cleavers; test: Test Example 5: herbicidal effect by foliage application, plastic box (Table 20, symbol Q); assay type: in vivo, false cleavers (Galium spurium); settings: foliage application, 320 g/ha, evaluated three weeks after application
# Summary of the method: as §4
# [32] = system: persian speedwell; test: Test Example 5: herbicidal effect by foliage application, plastic box (Table 20, symbol R); assay type: in vivo, Persian speedwell (Veronica persica); settings: foliage application, 320 g/ha, evaluated three weeks after application
# Summary of the method: as §4
smiles,measurement,setting,value
COc1ccc2sc(-c3ccccc3OC)c(-c3c(O)c(C)nn(C)c3=O)c2c1 [2-165],Herbicidal effect on A: late watergrass (grade 0-5),[1],3 (Herbicidal rate of 40% or more and less than 70%)
same,Herbicidal effect on B: Japanese bulrush (grade 0-5),[2],0 (Herbicidal rate of 5% or less (almost no effect))
same,Herbicidal effect on C: oval-leafed pondweed (grade 0-5),[3],1 (Herbicidal rate of 5% or more and less than 20%)
same,herbicidal effect on H: barnyard grass,[4],5 (Herbicidal rate of 90% or more (almost completely withered))
same,herbicidal effect on D: Chinese sprangletop,[5],3 (Herbicidal rate of 40% or more and less than 70%)
same,herbicidal effect on E: rice flat sedge,[6],5 (Herbicidal rate of 90% or more (almost completely withered))
same,"F: southern crabgrass, herbicidal effect rating",[7],3 (Herbicidal rate of 40% or more and less than 70%)
same,"G: green foxtail, herbicidal effect rating",[8],4 (Herbicidal rate of 70% or more and less than 90%)
same,"H: barnyard grass, herbicidal effect rating",[9],3 (Herbicidal rate of 40% or more and less than 70%)
same,"I: wild oat, herbicidal effect rating",[10],2 (Herbicidal rate of 20% or more and less than 40%)
same,"J: blackgrass, herbicidal effect rating",[11],4 (Herbicidal rate of 70% or more and less than 90%)
same,"K: Italian ryegrass, herbicidal effect rating",[12],0 (Herbicidal rate of 5% or less (almost no effect))
same,"L: windgrass, herbicidal effect rating",[13],4 (Herbicidal rate of 70% or more and less than 90%)
same,"M: velvetleaf, herbicidal effect rating",[14],2 (Herbicidal rate of 20% or more and less than 40%)
same,"N: redroot pigweed, herbicidal effect rating",[15],4 (Herbicidal rate of 70% or more and less than 90%)
same,"O: lambsquarters, herbicidal effect rating",[16],4 (Herbicidal rate of 70% or more and less than 90%)
same,"P: chickweed, herbicidal effect rating",[17],4 (Herbicidal rate of 70% or more and less than 90%)
same,"Q: false cleavers, herbicidal effect rating",[18],3 (Herbicidal rate of 40% or more and less than 70%)
same,"R: persian speedwell, herbicidal effect rating",[19],5 (Herbicidal rate of 90% or more (almost completely withered))
same,herbicidal effect on F: southern crabgrass (criteria 0-5),[20],5 (Herbicidal rate of 90% or more (almost completely withered))
same,herbicidal effect on G: green foxtail (criteria 0-5),[21],5 (Herbicidal rate of 90% or more (almost completely withered))
same,herbicidal effect on H: barnyard grass (criteria 0-5),[22],5 (Herbicidal rate of 90% or more (almost completely withered))
same,herbicidal effect on I: wild oat (criteria 0-5),[23],5 (Herbicidal rate of 90% or more (almost completely withered))
same,herbicidal effect on J: blackgrass (criteria 0-5),[24],5 (Herbicidal rate of 90% or more (almost completely withered))
same,herbicidal effect on K: Italian ryegrass (criteria 0-5),[25],4 (Herbicidal rate of 70% or more and less than 90%)
same,herbicidal effect on L: windgrass (criteria 0-5),[26],5 (Herbicidal rate of 90% or more (almost completely withered))
same,herbicidal effect on M: velvetleaf (criteria 0-5),[27],5 (Herbicidal rate of 90% or more (almost completely withered))
same,herbicidal effect on N: redroot pigweed (criteria 0-5),[28],5 (Herbicidal rate of 90% or more (almost completely withered))
same,herbicidal effect on O: lambsquarters (criteria 0-5),[29],5 (Herbicidal rate of 90% or more (almost completely withered))
same,herbicidal effect on P: chickweed (criteria 0-5),[30],5 (Herbicidal rate of 90% or more (almost completely withered))
same,herbicidal effect on Q: false cleavers (criteria 0-5),[31],5 (Herbicidal rate of 90% or more (almost completely withered))
same,herbicidal effect on R: persian speedwell (criteria 0-5),[32],4 (Herbicidal rate of 70% or more and less than 90%)
